Laboratory results from patent publication US9131692B2, “Antibacterial imidazolium compound and antibacterial photocurable thiol-ene compositions comprising the same, and antibacterial polymer coatins prepared therefrom” (Korea Institute of Science and Technology, priority 2013, dated 2015).
Where a name gives a salt, the structure may show the parent alone.

Legend:
Type in all cases: cell-based
various strains = test: MIC test of imidazolium salt, overall statement; conditions: text summary of Table 7; compared with benzoalconium chloride (BKC)
[1] = tested on: Moraxella catanhalis (ATCC 25240); test: MIC test of imidazolium salt
[2] = tested on: Salmonella typhimurium (ATCC 1331); test: MIC test of imidazolium salt
[3] = tested on: Serratia marcescens (ATCC 27117); test: MIC test of imidazolium salt

Question: What does the source list for `C=CCn1cc[n+](CCCCCCCCCCCC)c1` [ADIm(Br), 1-allyl-3-dodecylimidazolium salt]?
Answer: antibacterial activity over various strains (various strains): very excellent antibacterial activity, similar to that of benzoalconium chloride (BKC); ADIm(Br) concentration at which strain has antibiosis [1]: 1000 µg/mL; ADIm(Br) concentration at which strain has antibiosis [2]: 1000 µg/mL; ADIm(Br) concentration at which strain has antibiosis [3]: 1000 µg/mL
